Test results reported in patent publication US12065471B2, “B*44 restricted peptides for use in immunotherapy against cancers and related methods” (Immatics Biotechnologies GmbH, priority 2018, dated 2024).

What was measured:
HLA-B*44:05 = HLA-B*44:05 (Homo sapiens, UniProt P01889, A223V/A65T/A93T/A95T/D201E/D98Y/E176V/E187L/E204Q/E69K/G107R/H137Y/K202T/L105A/L119I/N104T/N87E/Q56L/Q94N/R106L/R155S/R180D/S101N/S121R/S35A/S48T/T118I/V36M/W191S/Y91S); test: MHC binding assay (UV-ligand exchange, β2m ELISA, peptide exchange yield); conditions: binding to HLA-B*44:05
Procedure, shortened: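 Binding is read as exchange yield, i.e. stabilized complex remaining after UV cleavage of a photolabile ligand in the presence of the candidate peptide. Streptavidin-captured monomers (100-fold dilution) are probed with HRP-anti-β2m, 1h at 37° C, TMB, A450. Standard curve: HLA-A*02:01/MLA-001 monomers at 15-500 ng/ml.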

CD8+ T cells = test: In vitro immunogenicity: T-cell priming with aAPCs loaded with peptide/MHC and anti-CD28, pMHC multimer readout; type: cell-based, human; conditions: pMHC multimer readout after T-cell priming
Method: After three cycles of stimulation, the detection of peptide-reactive cells was performed by 2D multimer staining with B*44/SEQ ID NO: 469 (FIG. 3A), B*44/SEQ ID NO: 512 (FIG. 3B), B*44/SEQ ID NO: 9 (FIG. 3C), B*44/SEQ ID NO: 11 (D), B*44/SEQ ID NO: 17 (E), B*44/SEQ ID NO: 35 (F) or B*44/SEQ ID NO: 41 (FIG. 3G). Right panels (FIGS. 3A through 3G) show control staining of cells stimulated with irrelevant B*44/peptide complexes. Viable singlet cells were gated for CD8+ lymphocytes. Boolean gates helped excluding false-positive events detected with multimers specific for different peptides.
In order to obtain information regarding the immunogenicity of the TUMAPs of the present invention, the inventors performed investigations using an in vitro T-cell priming assay based on repeated stimulations of CD8+ T cells with artificial antigen presenting cells (aAPCs) loaded with peptide/MHC complexes and anti-CD28 antibody.
In order to perform in vitro stimulations by artificial antigen presenting cells loaded with peptide-MHC complex (pMHC) and anti-CD28 antibody, the inventors first isolated CD8+ T cells from fresh HLA-A*02 leukapheresis products via positive selection using CD8 microbeads (Miltenyi Biotec, Bergisch-Gladbach, Germany) of healthy donors obtained from the University clinics Mannheim, Germany, after informed consent.
PBMCs and isolated CD8+ lymphocytes were incubated in T-cell medium (TCM) until use consisting of RPMI-Glutamax (Invitrogen, Karlsruhe, Germany) supplemented with 10% heat inactivated human AB serum (PAN-Biotech, Aidenbach, Germany), 100 U/ml Penicillin/100 μg/ml Streptomycin (Cambrex, Cologne, Germany), 1 mM sodium pyruvate (CC Pro, Oberdorda, Germany), 20 μg/ml Gentamycin (Cambrex). 2.5 ng/ml IL-7 (PromoCell, Heidelberg, Germany) and 10 U/ml IL-2 (Novartis Pharma, Nümberg, Germany) were also added to the TCM at this step.
Generation of pMHC/anti-CD28 coated beads, T-cell stimulations and readout was performed in a highly defined in vitro system using four different pMHC molecules per stimulation condition and 8 different pMHC molecules per readout condition.
The purified co-stimulatory mouse IgG2a anti human CD28 Ab 9.3 (Jung et al., 1987) was chemically biotinylated using Sulfo-N-hydroxysuccinimidobiotin as recommended by the manufacturer (Perbio, Bonn, Germany). Beads used were 5.6 μm diameter streptavidin coated polystyrene particles (Bangs Laboratories, Illinois, USA).
800.000 beads/200 μl were coated in 96-well plates in the presence of 4×12.5 ng different biotin-pMHC, washed and 600 ng biotin anti-CD28 were added subsequently in a volume of 200 μl. Stimulations were initiated in 96-well plates by co-incubating 1×10^6 CD8+ T cells with 2×10^5 washed coated beads in 200 μl TCM supplemented with 5 ng/ml IL-12 (PromoCell) for 3 days at 37° C. Half of the medium was then exchanged by fresh TCM supplemented with 80 U/ml IL-2 and incubating was continued for 4 days at 37° C. This stimulation cycle was performed for a total of three times. For the pMHC multimer readout using 8 different pMHC molecules per condition, a two-dimensional combinatorial coding approach was used as previously described (Andersen et al., 2012) with minor modifications encompassing coupling to 5 different fluorochromes. Finally, multimeric analyses were performed by staining the cells with Live/dead near IR dye (Invitrogen, Karlsruhe, Germany), CD8-FITC antibody clone SK1 (BD, Heidelberg, Germany) and fluorescent pMHC multimers. For analysis, a BD LSRII SORP cytometer equipped with appropriate lasers and filters was used. Peptide specific cells were calculated as percentage of total CD8+ cells. Evaluation of multimeric analysis was done using the FlowJo software (Tree Star, Oregon, USA). In vitro priming of specific multimer+CD8+ lymphocytes was detected by comparing to negative control stimulations.

Row | Peptide exchange (MHC class I binding score, peptide exchange yield) (HLA-B*44:05) | Substance | Wells positive [%] (CD8+ T cells; Table 10b) | Wells positive [%] (CD8+ T cells; Table 10a)
1 | ++ (>20% = ++) | 4 (AEALGAAKKL; listed as Homo sapiens) [compound 4] | + (<20% = +) | –
2 | +++ (>50 = +++) | 6 (AELVGPVIPQDW; listed as Homo sapiens) [compound 6] | ++ (20%-49% = ++) | –
3 | +++ (>50 = +++) | 7 (SESDLVNFI; listed as Homo sapiens) [compound 7] | + (<20% = +) | –
4 | ++++ (>75% = ++++) | 9 (MEVDPIGHLYIF; listed as Homo sapiens) [compound 9] | +++ (50%-69% = +++) | –
5 | +++ (>50 = +++) | 11 (EENIVAIGI; listed as Homo sapiens) [compound 11] | +++ (50%-69% = +++) | –
6 | +++ (>50 = +++) | 12 (KEVDPTGHSF; listed as Homo sapiens) [compound 12] | + (<20% = +) | –
7 | ++ (>20% = ++) | 13 (VEAQDRETW; listed as Homo sapiens) [compound 13] | ++ (20%-49% = ++) | –
8 | +++ (>50 = +++) | 15 (MEAELVRRI; listed as Homo sapiens) [compound 15] | + (<20% = +) | –
9 | +++ (>50 = +++) | 16 (NESDRLVYF; listed as Homo sapiens) [compound 16] | ++ (20%-49% = ++) | –
10 | +++ (>50 = +++) | 17 (SEIYQPRGF; listed as Homo sapiens) [compound 17] | ++++ (>=70% = ++++) | –
11 | +++ (>50 = +++) | 18 (QEAPRPASSL; listed as Homo sapiens) [compound 18] | + (<20% = +) | –
12 | ++ (>20% = ++) | 19 (MEHSDENIQFW; listed as Homo sapiens) [compound 19] | ++ (20%-49% = ++) | –
13 | +++ (>50 = +++) | 20 (LEALLSDLF; listed as Homo sapiens) [compound 20] | ++ (20%-49% = ++) | –
14 | – | 459 (KEVDPAGHSY; listed as Homo sapiens) [compound 459] | – | ++ (20%-49% = ++)
15 | – | 460 (SEFMQVIF; listed as Homo sapiens) [compound 460] | – | + (<20% = +)
16 | – | 461 (MEVDPIGHVYIF; listed as Homo sapiens) [compound 461] | – | + (<20% = +)
17 | – | 463 (QEMQHFLGL; listed as Homo sapiens) [compound 463] | – | + (<20% = +)
18 | – | 467 (FEYDFLLQRI; listed as Homo sapiens) [compound 467] | – | + (<20% = +)
19 | – | 468 (QEQDVDLVQKY; listed as Homo sapiens) [compound 468] | – | + (<20% = +)
20 | – | 469 (SEAFPSRAL; listed as Homo sapiens) [compound 469] | – | +++ (50%-69% = +++)
21 | – | 470 (EDAQGHIW; listed as Homo sapiens) [compound 470] | – | ++ (20%-49% = ++)
22 | – | 474 (AEEEIMKKI; listed as Homo sapiens) [compound 474] | – | + (<20% = +)
23 | – | 476 (MEHPGKLLF; listed as Homo sapiens) [compound 476] | – | + (<20% = +)
24 | – | 477 (VYEKNGYIYF; listed as Homo sapiens) [compound 477] | – | ++++ (>=70% = ++++)
25 | – | 479 (QENSYQSRL; listed as Homo sapiens) [compound 479] | – | + (<20% = +)

Row | Peptide exchange (MHC class I binding score, peptide exchange yield) (HLA-B*44:05) | Substance | Wells positive [%] (CD8+ T cells; Table 10b) | Wells positive [%] (CD8+ T cells; Table 10a)
26 | – | 485 (NEHPSNNW; listed as Homo sapiens) [compound 485] | – | + (<20% = +)
27 | – | 487 (LEMPHYSTF; listed as Homo sapiens) [compound 487] | – | +++ (50%-69% = +++)
28 | – | 488 (SENPETITY; listed as Homo sapiens) [compound 488] | – | ++ (20%-49% = ++)
29 | – | 489 (SEYADTHYF; listed as Homo sapiens) [compound 489] | – | +++ (50%-69% = +++)
30 | – | 490 (TENRYCVQL; listed as Homo sapiens) [compound 490] | – | ++ (20%-49% = ++)
31 | – | 491 (YEVDTVLRY; listed as Homo sapiens) [compound 491] | – | + (<20% = +)
32 | – | 492 (AEHNFVAKA; listed as Homo sapiens) [compound 492] | – | + (<20% = +)
33 | – | 494 (KEITGFLLI; listed as Homo sapiens) [compound 494] | – | ++ (20%-49% = ++)
34 | – | 495 (RENQVLGSGW; listed as Homo sapiens) [compound 495] | – | +++ (50%-69% = +++)
35 | – | 496 (AEIGEGAYGKVF; listed as Homo sapiens) [compound 496] | – | ++ (20%-49% = ++)
36 | – | 497 (GEGAYGKVF; listed as Homo sapiens) [compound 497] | – | +++ (50%-69% = +++)
37 | – | 500 (QEVLLQTFL; listed as Homo sapiens) [compound 500] | – | + (<20% = +)
38 | – | 501 (KEGDLGGKQW; listed as Homo sapiens) [compound 501] | – | + (<20% = +)
39 | – | 504 (KESQLPTVM; listed as Homo sapiens) [compound 504] | – | ++ (20%-49% = ++)
40 | – | 506 (QESDLRLFL; listed as Homo sapiens) [compound 506] | – | + (<20% = +)
41 | – | 508 (AESEDLAVHL; listed as Homo sapiens) [compound 508] | – | + (<20% = +)
42 | – | 509 (AESEDLAVHLY; listed as Homo sapiens) [compound 509] | – | + (<20% = +)
43 | – | 510 (SEDLAVHLY; listed as Homo sapiens) [compound 510] | – | ++++ (>=70% = ++++)
44 | – | 511 (AEAVLKTLQEL; listed as Homo sapiens) [compound 511] | – | + (<20% = +)
45 | – | 512 (AEPLVGQRW; listed as Homo sapiens) [compound 512] | – | ++++ (>=70% = ++++)
46 | – | 513 (AEKDGKLTDY; listed as Homo sapiens) [compound 513] | – | + (<20% = +)
47 | – | 515 (AEGGKVPIKW; listed as Homo sapiens) [compound 515] | – | ++ (20%-49% = ++)
48 | – | 516 (DEYLIPQQGF; listed as Homo sapiens) [compound 516] | – | + (<20% = +)
49 | – | 518 (FELPTGAGL; listed as Homo sapiens) [compound 518] | – | ++ (20%-49% = ++)
